Source: patent US5972598A, “Methods for preventing multidrug resistance in cancer cells” (priority 1995, dated 1999)
“Also recorded” adds a separate entry of the source. Read-outs that look alike come from different tables or passages of the source.

Assays:
MDR1 [1] = test: Inhibition of cytotoxic drug (Ara-C) induced MDR1 expression by protein kinase inhibitors; type: cell-based, human
Procedure: FIG. 5. Effect of protein kinase inhibitors on MDR1 mRNA induction by cytotoxic drugs in H9 cells. […]
(§1) (Commercially-available kits (for example, from GIBCO/BRL, Gaithersburg, Md.) can be advantageously modified for making cDNA using random hexamers.) PCR is then performed using the following primers: […]
(§2) (where β2 M represents β2 microglobulin). PCR was performed for β2 M experiments under a regime consisting of 1 cycle comprising denaturation at 94° C. for 3 minutes, primer annealing at 60° C. for 30 seconds, and primer extension at 72° C. for 1 minute, followed by 19 cycles comprising denaturation at 94° C. for 30 seconds, primer annealing at 60° C. for 30 seconds, and primer extension at 72° C. for 1 minute, followed by a final cycle comprising denaturation at 94° C. for 30 seconds, primer annealing at 60° C. for 30 seconds, and primer extension at 72° C. for 5 minutes. MDR1 cDNA sequences were amplified using the identical protocol as for β2 M, but extending the amplification from 19 cycles to 25 cycles. In addition, the cDNA-PCR amplification protocol contained the following modifications: (i) Taq DNA polymerase was added to the PCR mixtures after initial heating of the samples to 94° C. (ii) The yield of the β2 -microglobulin-specific band, obtained after 22-28 cycles of PCR, was used as the primary criterion for equalizing the starting amounts of the cDNA templates in different preparations, in order to account for differential RNA degradation in cells subjected to different types of treatment. […] PCR products were detected by autoradiography.
Cells were plated in 6-well Falcon tissue culture plates at 3,300 cells per well, and incubated in the appropriate concentrations of drugs. Each of the protein kinase inhibitors to be tested were added at their appropriate final concentrations 45 minutes prior to MDR1 induction by the addition of Ara-C or TPA, with the exception of herbimycin A, which was added 12 hours prior to Ara-C or TPA, and tyrphostins A25 and B46, which were each added 16 hours prior to MDR1 induction by the addition of Ara-C or TPA. Cells were incubated overnight (TPA) or for 10 hours (Ara-C) at 37° C. under an atmosphere of 5% CO2 after the addition of the MDR1 inducing agents before harvesting for cDNA-PCR analysis.
In addition to these conditions, the analysis of certain drugs imposed added requirements. For experiments using calphostin C, cells were incubated under direct white light illumination. For experiments using D,L-threo-sphingosine, the cell culture medium was pre-treated with the appropriate concentration of the drug for one hour at 37° C. with continuous gentle mixing. After this pre-treatment, cells were resuspended in media supplemented with drug and incubated for 45 minutes as described above.
cDNA-PCR analyses on each culture treated with drugs, or in control cultures incubated in the absence or presence of Ara-C or TPA alone, were performed as described in Section 6.1.3 above.
To further evaluate the capacity of protein kinase inhibitors to suppress MDR1 induction by cytotoxic drugs and PKC agonists, H-9 human T cell leukemia cells were used in cDNA-PCR assays to examine induced MDR1 mRNA expression levels in the presence of such protein kinase inhibitors.

PKC = settings: literature; cited from earlier work
MRP = test: Inhibition of MRP expression in H-9 cells; type: cell-based, human; set-up: Inhibition of MRP Expression: key to the marks not given beside the values
Procedure: PCR was performed using the following primers: […]
(where β2 M represents β2 microglobulin). PCR was performed for β2 M experiments under a regime consisting of 1 cycle comprising denaturation at 94° C. for 3 minutes, primer annealing at 60° C. for 30 seconds, and primer extension at 72° C. for 1 minute, followed by 19 cycles comprising denaturation at 94° C. for 30 seconds, primer annealing at 60° C. for 30 seconds, and primer extension at 72° C. for 1 minute, followed by a final cycle comprising denaturation at 94° C. for 30 seconds, primer annealing at 60° C. for 30 seconds, and primer extension at 72° C. for 5 minutes.

tumor [2] = settings: nude mice; Meyer et al., 1989; cited from earlier work
P-glycoprotein = P-glycoprotein (Homo sapiens, UniProt P08183); test: Rh123 accumulation assay of P-glycoprotein activity in human PBL
Sequence of P-glycoprotein (P08183 whole entry): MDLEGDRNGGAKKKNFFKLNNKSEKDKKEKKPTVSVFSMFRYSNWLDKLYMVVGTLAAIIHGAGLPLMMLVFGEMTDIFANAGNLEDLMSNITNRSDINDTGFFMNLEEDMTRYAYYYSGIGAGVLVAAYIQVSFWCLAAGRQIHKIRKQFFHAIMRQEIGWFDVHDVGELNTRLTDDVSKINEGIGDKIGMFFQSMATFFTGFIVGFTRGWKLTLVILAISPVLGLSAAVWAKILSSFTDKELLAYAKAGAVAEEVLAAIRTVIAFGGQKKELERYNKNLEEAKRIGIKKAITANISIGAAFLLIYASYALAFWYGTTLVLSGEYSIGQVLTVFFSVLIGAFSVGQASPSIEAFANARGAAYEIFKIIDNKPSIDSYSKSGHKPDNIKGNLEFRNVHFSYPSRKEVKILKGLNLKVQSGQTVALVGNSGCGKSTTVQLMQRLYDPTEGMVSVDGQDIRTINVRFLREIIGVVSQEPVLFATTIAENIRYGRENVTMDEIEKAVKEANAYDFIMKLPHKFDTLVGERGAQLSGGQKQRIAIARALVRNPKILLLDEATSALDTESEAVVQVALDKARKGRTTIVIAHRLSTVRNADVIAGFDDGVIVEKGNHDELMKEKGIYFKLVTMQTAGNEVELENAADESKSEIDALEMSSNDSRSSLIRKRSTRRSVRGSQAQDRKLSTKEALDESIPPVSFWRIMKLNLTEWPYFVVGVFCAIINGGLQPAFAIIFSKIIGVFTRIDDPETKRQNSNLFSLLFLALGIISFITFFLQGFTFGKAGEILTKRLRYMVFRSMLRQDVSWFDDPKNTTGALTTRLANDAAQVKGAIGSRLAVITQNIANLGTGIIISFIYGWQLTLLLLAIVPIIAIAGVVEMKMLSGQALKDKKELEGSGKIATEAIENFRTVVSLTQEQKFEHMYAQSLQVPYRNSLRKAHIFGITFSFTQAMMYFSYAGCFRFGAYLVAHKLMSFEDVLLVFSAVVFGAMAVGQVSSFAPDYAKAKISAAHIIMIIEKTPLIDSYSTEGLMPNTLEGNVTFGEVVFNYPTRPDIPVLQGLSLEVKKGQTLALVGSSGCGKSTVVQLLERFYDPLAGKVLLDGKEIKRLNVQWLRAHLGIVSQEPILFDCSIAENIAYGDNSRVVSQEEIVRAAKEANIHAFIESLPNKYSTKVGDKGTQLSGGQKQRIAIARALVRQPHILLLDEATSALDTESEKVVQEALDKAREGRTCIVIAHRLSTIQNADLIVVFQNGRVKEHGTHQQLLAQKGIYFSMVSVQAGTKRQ
Procedure: KG1 cell line was maintained in Iscove's modified Dulbecco medium with 20% fetal calf serum (FCS) and 2 mM L-glutamine, 100 units/ml penicillin and 100 μg/ml streptomycin (GIBCO Laboratories, Grand Island, N.Y.).
A functional assay was used to detect changes in P-glycoprotein activity in human PBL treated with different agents that induce lymphoid differentiation or activation, based on flow cytometric analysis of cellular accumulation of Rh123, which is a P-glycoprotein-transported fluorescent mitochondrial dye. In this assay, cells expressing little or no P-glycoprotein stain brightly with Rh123, whereas cells with higher levels of P-glycoprotein activity appear Rh123-dull. […] Since the best-known cellular effect of TPA is the stimulation of PKC, it was also tested whether DOG, a cell-permeable diacylglycerol and a physiological stimulant of PKC, would have an effect on Rh123 accumulation in PBL.

MDR1 [3] = test: cDNA-PCR / flow cytometric analysis of MDR1 induction by PKC agonists; type: cell-based, human
Procedure: Neomycin sulfate (Calbiochem) was dissolved in sterile, deionized water.
P-glycoprotein expression on the cell surface was analyzed using a P-glycoprotein-specific mouse IgG2a monoclonal antibody (mAB) UIC2 (Mechetner and Roninson, 1992, Proc. Natl. Acad. Sci. USA 89:5824-5828). Mouse IgG2a isotype control antibody was obtained from Sigma. For staining of PBL with UIC2 mAB or isotype control, 10^6 cells were stained at 4° C. with 10 μg of the antibody for 30 minutes and, after two washes, stained for 30 minutes with 10 μg of FITC-conjugated goat anti-mouse IgG2a antibody (Fisher Scientific, Fairlawn, N.J.), diluted 1:2 with PBS plus 2% FCS. Cells were then washed twice with ice-cold PBS plus 2% FCS, stained with PI and kept on ice until analysis. Essentially the same protocol was used for staining of other cell types except that 2 μg of the secondary antibody were used per 10^6 cells. In some experiments, phycoerythrine (PE)-conjugated goat anti-mouse IgG2a was used as the secondary antibody; no PI was added in such cases. Flow cytometric analysis was conducted on a Coulter Epics 753 Flow Cytometer.
RNA was extracted from approximately 10^6 cells by a small-scale sodium dodecyl sulfate extraction procedure (Peppel and Baglioni, 1990, BioTechniques 9:711-713). In the alternative, RNA was isolated from cells using the TRIzol method (commercially available from GIBCO/BRL). cDNA synthesis and polymerase chain reaction (PCR) amplification of MDR1 and β2 -microglobulin cDNA sequences were carried out essentially as described (Noonan et al., 1990, Proc. Natl. Acad. Sci. USA 87:7160-7164; Noonan and Roninson, 1991, pp. 319-333 In Roninson (Ed.), Molecular and Cellular Biology of Multidrug Resistance in Tumor Cells, Plenum Press, New York). Briefly, cDNA was prepared using the method of Krug and Berger (1987, Meth. Enzymol. 152: 316-324), with the modification that random hexamers were substituted for oligo(dT) as primers for cDNA synthesis. (Commercially-available kits (for example, from GIBCO/BRL, Gaithersburg, Md.) can be advantageously modified for making cDNA using random hexamers.) PCR is then performed using the following primers: […]
as §2

MDR1 [4] = type: cell-based, human
Procedure: The times of drug exposure are indicated.
as §1
Next, it was tested whether drug-induced MDR1 expression was maintained after the cytotoxic treatment. […] At different time points, MDR1 expression in the surviving cells was analyzed by dye efflux and immunofluorescence labeling with UIC2 (FIG. 3c) or by cDNA-PCR (FIG. 4e).

tumor [5] = settings: cited from earlier work; for antitumor activity in vivo: literature

## O=c1c(-c2ccc(O)cc2)coc2cc(O)cc(O)c12 [genistein]
MDR1 [1]; 150 μM
  inhibition of Ara-C induced MDR1 expression: only weakly inhibited Ara-C induced MDR1 expression
MDR1 [1]; H9 cells, 25 μM Ara-C 10 h, 150 μM
  inhibition of Ara-C induced MDR1 expression: +

## COC1C=CC=C(C)C(=O)NC2=CC(=O)C=C(C2=O)C(OC)C(C)CC(OC)C(OC)C(C)C=C(C)C1OC(N)=O (stereo not shown) [herbimycin A]
MDR1 [1]; 0.35-3 μM
  inhibition of Ara-C induced MDR1 expression: little or no capacity to inhibit Ara-C induced MDR1 expression; also recorded: ineffective at inhibiting MDR1 induction by Ara-C
MDR1 [1]; H9 cells, 25 μM Ara-C 10 h, 0.3-3 μM (12 h)
  inhibition of Ara-C induced MDR1 expression: -

## neomycin sulfate
PKC
  inhibition of protein kinase C: protein kinase C inhibitors
MRP; 10 mM
  Inhibition of MRP Expression: ++++
  inhibition of MRP expression: strongly inhibited; also recorded: capable of inhibiting MRP expression
MDR1 [1]; H-9 cells, 10 mM
  inhibition of Ara-C induced MDR1 expression: inhibit Ara-C induced MDR1 expression

## CO[C@@H]1[C@H](N(C)C(=O)c2ccccc2)C[C@H]2O[C@]1(C)n1c3ccccc3c3c4c(c5c6ccccc6n2c5c31)C(=O)NC4 [CGP 41 251]
Tumor [2]
  anti-tumor effect at fraction of MTD: 1/10
  maximum tolerated dose (MTD): 250 mg/kg

## CCCCCCCC(=O)OCC(CO)OC(=O)CCCCCCC (stereo not shown) [DOG, 1,2-dioctanoylglycerol]
P-glycoprotein; human PBL
  effect on P-glycoprotein activity (Rh123 accumulation): decreased Rh123 accumulation
MDR1 [3]; H9 cells
  induction of MDR1 mRNA and P-glycoprotein: clear-cut induction of MDR1 mRNA and P-glycoprotein
MDR1 [3]; K562 cells
  induction of MDR1 mRNA and P-glycoprotein: clear-cut induction of MDR1 mRNA and P-glycoprotein

## O=c1[nH]cc(F)c(=O)[nH]1 [5-fluorouracil]
MDR1 [4]
  MDR1 induction, mRNA and protein levels: MDR1 induction, both at the mRNA and at the protein levels, was observed

## N#CC(=Cc1ccc(O)c(O)c1)C(=O)NCCCc1ccccc1 [tyrphostin B46]
MDR1 [1]; H-9 cells, 50-100 μM
  inhibition of Ara-C induced MDR1 expression: strongly inhibit Ara-C induced MDR1 expression; also recorded: inhibit Ara-C induced MDR1 expression

## IL-1α
P-glycoprotein
  effect on P-glycoprotein activity (Rh123 accumulation): No apparent effects on P-glycoprotein

## CN[C@@H]1C[C@H]2O[C@@](C)([C@@H]1OC)n1c3ccccc3c3c4c(c5c6ccccc6n2c5c31)C(=O)N[C@H]4O [UCN-01]
Tumor [5]
  antitumor activity in vivo: antitumor activity in vivo

## CCN(CC)CCN1C(=O)c2c(c3c4cccc(Cl)c4n([C@@H]4O[C@H](CO)[C@@H](OC)[C@H](O)[C@H]4O)c3c3[nH]c4c(Cl)cccc4c23)C1=O [BMY 27557, 8-N-(diethylaminoethyl) rebeccamycin]
Tumor [5]; i.p., Schurig et al., 1990
  optimal total dose, i.p., nine equal injections per day at 12 mg/kg/injection: 108 mg/kg
  optimal total dose, i.p., single dose: 64 mg/kg
Tumor [5]
  antitumor activity in vivo: antitumor activity in vivo

## COc1c(CC(C)OC(=O)Oc2ccc(O)cc2)c2c3c(CC(C)OC(=O)c4ccccc4)c(OC)c(=O)c4c(O)cc(OC)c(c5c(OC)cc(O)c(c1=O)c52)c43 (stereo not shown) [calphostin C]
MDR1 [1]; 1 μM with white light illumination
  prevention of MDR1 induction by chemotherapeutic drugs: prevent MDR1 induction
MDR1 [1]; H-9 cells, 0.1 μM with white light illumination
  inhibition of Ara-C induced MDR1 expression: greatly reduced
MDR1 [1]; H-9 cells, 1 μM with white light illumination
  inhibition of Ara-C induced MDR1 expression: capable of inhibiting MDR1 expression

## CNc1ccc2oc(C[C@H]3O[C@@]4(CC[C@H]3C)O[C@H]([C@H](C)C(=O)c3ccc[nH]3)[C@H](C)C[C@H]4C)nc2c1C(=O)O [A23187]
P-glycoprotein; human PBL
  effect on P-glycoprotein activity (Rh123 accumulation): No apparent effects on P-glycoprotein

## N.N.[Cl][Pt][Cl] [cisplatin]
MDR1 [4]; K562 cells
  MDR1 mRNA induction: induce MDR1 mRNA expression
MDR1 [4]; human leukemia and solid-tumor derived cell lines, subpopulation of treated cells
  MDR1 induction, mRNA and protein levels: MDR1 induction, both at the mRNA and at the protein levels, was observed

## CN(Cc1cnc2nc(N)nc(N)c2n1)c1ccc(C(=O)N[C@@H](CCC(=O)O)C(=O)O)cc1 [methotrexate]
MDR1 [4]
  MDR1 induction, mRNA and protein levels: MDR1 induction, both at the mRNA and at the protein levels, was observed
  MDR1 mRNA expression: MDR1 mRNA expression was induced
  maintenance of MDR1 expression after removal of the drug: least several weeks

## N#CC(C#N)=Cc1cc(O)c(O)c(O)c1 [tyrphostin A25]
MDR1 [1]; H-9 cells, 50-100 μM
  inhibition of Ara-C induced MDR1 expression: strongly inhibit Ara-C induced MDR1 expression; also recorded: inhibit Ara-C induced MDR1 expression

## COc1ccc2c(c[n+](C)c3c4cc5c(cc4ccc23)OCO5)c1OC [chelerythrine]
MRP; 1-5 μM
  Inhibition of MRP Expression: ++++
  inhibition of MRP expression: strongly inhibited; also recorded: capable of inhibiting MRP expression
MDR1 [1]; 5 μM
  prevention of MDR1 induction by chemotherapeutic drugs: prevent MDR1 induction
MDR1 [1]; H-9 cells, 1 μM and 5 μM
  inhibition of Ara-C induced MDR1 expression: Progressive dose-dependent inhibition

## O=CN/C=C/c1cc(O)ccc1O [erbstatin]
PKC
  inhibition of protein kinase C: protein kinase C inhibitors
Tumor [5]
  antitumor activity in vivo: antitumor activity in vivo

## COc1cc([C@@H]2c3cc4c(cc3[C@@H](O[C@@H]3O[C@@H]5CO[C@@H](C)O[C@H]5[C@H](O)[C@H]3O)[C@H]3COC(=O)[C@H]23)OCO4)cc(OC)c1O [etoposide]
MDR1 [4]
  MDR1 induction, mRNA and protein levels: MDR1 induction, both at the mRNA and at the protein levels, was observed
